Test results reported in PubChem BioAssay AID248 (DTP/NCI, 2004).
Values joined by “and” are separate entries in the source; they are usually repeats but may differ in a detail not shown here. Identical values can stand only once. Inconclusive results and toxic doses are left out.

Test system: L1210 leukemia ip in BDF1 mice, survival T/C
Assay: NCI In Vivo Anticancer Drug Screen. Data for tumor model L1210 Leukemia (intraperitoneal) in B6D2F1 (BDF1) mice
Conditions: endpoint: mean survival time, higher = longer survival
Summary of the method: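 Ratio derived from survival: compound-dosed mice over vehicle-dosed mice, all bearing a transplantable tumor.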

[1] = dose: 100.0 mg/kg/injection, schedule: Q01DX009 (ip), vehicle: Klucel (hydroxypropylcellulose) (HPC)
[2] = dose: 100.0 mg/kg/injection, schedule: Q04DX003 (ip), vehicle: Klucel (hydroxypropylcellulose) (HPC)
[3] = dose: 200.0 mg/kg/injection, schedule: Q01DX009 (ip), vehicle: Klucel (hydroxypropylcellulose) (HPC)
[4] = dose: 200.0 mg/kg/injection, schedule: Q04DX003 (ip), vehicle: Klucel (hydroxypropylcellulose) (HPC)
[5] = dose: 400.0 mg/kg/injection, schedule: Q01DX009 (ip), vehicle: Klucel (hydroxypropylcellulose) (HPC)
[6] = dose: 400.0 mg/kg/injection, schedule: Q04DX003 (ip), vehicle: Klucel (hydroxypropylcellulose) (HPC)
[7] = dose: 100.0 mg/kg/injection, schedule: Q04DX003 (ip), vehicle: saline with Tween-80
[8] = dose: 200.0 mg/kg/injection, schedule: Q04DX003 (ip), vehicle: saline with Tween-80
[9] = dose: 400.0 mg/kg/injection, schedule: Q04DX003 (ip), vehicle: saline with Tween-80
[10] = dose: 100.0 mg/kg/injection, schedule: Q04DX003 (ip), vehicle: saline
[11] = dose: 200.0 mg/kg/injection, schedule: Q04DX003 (ip), vehicle: saline
[12] = dose: 400.0 mg/kg/injection, schedule: Q04DX003 (ip), vehicle: saline
[13] = dose: 100.0 mg/kg/injection, schedule: Q01DX001 (ip), vehicle: saline

How did the T/C (dose: 50.0 mg/kg/injection, schedule: Q01DX009 (ip), vehicle: Klucel (hydroxypropylcellulose) (HPC)) turn out when `COc1cc([N+](=O)[O-])c2ncccc2c1` was run?
Its T/C is 102 % of control.

And the T/C [1]?
The T/C was 105 % of control.

And the T/C [2]?
Its T/C is 94 % of control.

What about the T/C [3] of the same compound?
Its T/C is 104 % of control.

And the T/C [4]?
The T/C was 91 % of control.

What about the T/C [5] of the same compound?
Its T/C is 115 % of control.

And the T/C [6]?
Its T/C is 104 % of control.

How did the T/C (dose: 100.0 mg/kg/injection, schedule: Q01DX009 (ip), vehicle: saline) turn out when `O=c1cc(-c2ccc(S(=O)(=O)F)cc2)[nH]c2ccc([N+](=O)[O-])cc12` was run?
Its T/C is 101 % of control.

What about the T/C (dose: 200.0 mg/kg/injection, schedule: Q01DX009 (ip), vehicle: saline) of the same compound?
Its T/C is 101 % of control.

And the T/C (dose: 400.0 mg/kg/injection, schedule: Q01DX009 (ip), vehicle: saline)?
The T/C was 100 % of control.

For `CC(C)(C)C1COP(=S)(C(C)(C)C)OC1` (stereo unspecified), which T/C [2] is on record?
Its T/C is 102 % of control.

And the T/C [4]?
The T/C was 93 % of control.

What does the source list for `CCN(CC)CCCNc1c2ccccc2nc2ccccc12`?
T/C (dose: 5.0 mg/kg/injection, schedule: Q01DX001 (ip), vehicle: saline): 113 % of control; T/C (dose: 10.0 mg/kg/injection, schedule: Q01DX001 (ip), vehicle: saline): 104 % of control; T/C (dose: 20.0 mg/kg/injection, schedule: Q01DX001 (ip), vehicle: saline): 115 % of control; T/C (dose: 40.0 mg/kg/injection, schedule: Q01DX001 (ip), vehicle: saline): 87 % of control

For `O=[N+]([O-])c1c(Cl)c(Cl)cc(Cl)c1Cl`, which T/C [1] is on record?
The T/C was 102 % of control and 92 % of control.

And the T/C [2]?
Its T/C is 93 % of control and 97 % of control.

What about the T/C [3] of the same compound?
The T/C was 106 % of control and 91 % of control.

And the T/C [4]?
The T/C was 101 % of control.

What about the T/C [5] of the same compound?
The T/C was 95 % of control and 92 % of control.

And the T/C [6]?
Its T/C is 95 % of control and 100 % of control.

For `C=C(C(=O)c1ccccc1)C(O)c1ccccc1` (stereo unspecified), which T/C (dose: 100.0 mg/kg/injection, schedule: Q01DX009 (ip), vehicle: saline with Tween-80) is on record?
Its T/C is 104 % of control.

What about the T/C [7] of the same compound?
The T/C was 100 % of control.

And the T/C (dose: 200.0 mg/kg/injection, schedule: Q01DX009 (ip), vehicle: saline with Tween-80)?
The T/C was 90 % of control.

What about the T/C [8] of the same compound?
Its T/C is 100 % of control.

And the T/C [9]?
Its T/C is 97 % of control.

For `S=c1nc[nH]c2c1ncn2/N=C/c1ccccc1`, which T/C (dose: 100.0 mg/kg/injection, schedule: Q01DX001 (ip), vehicle: other) is on record?
Its T/C is 96 % of control.

What about the T/C (dose: 200.0 mg/kg/injection, schedule: Q01DX001 (ip), vehicle: other) of the same compound?
Its T/C is 90 % of control.

What about the T/C (dose: 400.0 mg/kg/injection, schedule: Q01DX001 (ip), vehicle: other) of the same compound?
Its T/C is 96 % of control.

With `CCCN=C(N)c1ccc(N=C(N)c2ccc(N=C(N)c3ccc(C(N)=NCCC)cc3)cc2)cc1` as the compound, how does the T/C (dose: 15.0 mg/kg/injection, schedule: Q01DX Z (ip), vehicle: carboxymethylcellulose (CMC)) read?
Its T/C is 154 % of control.

What about the T/C (dose: 30.0 mg/kg/injection, schedule: Q01DX Z (ip), vehicle: carboxymethylcellulose (CMC)) of the same compound?
The T/C was 88 % of control.

What about the T/C (dose: 50.0 mg/kg/injection, schedule: Q01DX Z (oral), vehicle: carboxymethylcellulose (CMC)) of the same compound?
The T/C was 110 % of control.

What about the T/C (dose: 100.0 mg/kg/injection, schedule: Q01DX Z (oral), vehicle: carboxymethylcellulose (CMC)) of the same compound?
The T/C was 109 % of control.

And the T/C (dose: 200.0 mg/kg/injection, schedule: Q01DX Z (oral), vehicle: carboxymethylcellulose (CMC))?
Its T/C is 106 % of control.

What about the T/C (dose: 400.0 mg/kg/injection, schedule: Q01DX Z (oral), vehicle: carboxymethylcellulose (CMC)) of the same compound?
The T/C was 109 % of control.

What does the source list for `COc1ccc(CCN=C(C)C2C3CC4CC(C3)CC2C4)cc1OC` (stereo unspecified)?
T/C [10]: 90 % of control; T/C [11]: 97 % of control; T/C [12]: 90 % of control

With `CC(O)(C(=O)O)c1ccccc1` (stereo unspecified) as the compound, how does the T/C (dose: 75.0 mg/kg/injection, schedule: Q01DX009 (ip), vehicle: other) read?
The T/C was 99 % of control.

What about the T/C [10] of the same compound?
Its T/C is 100 % of control.

And the T/C (dose: 150.0 mg/kg/injection, schedule: Q01DX009 (ip), vehicle: other)?
Its T/C is 94 % of control.

And the T/C [11]?
The T/C was 105 % of control.

What about the T/C (dose: 300.0 mg/kg/injection, schedule: Q01DX009 (ip), vehicle: other) of the same compound?
Its T/C is 100 % of control.

And the T/C [12]?
Its T/C is 91 % of control.

How did the T/C (dose: 100.0 mg/kg/injection, schedule: Q04DX002 (ip), vehicle: saline with Tween-80) turn out when `Cc1cccc(Cl)c1OCC(=O)Nc1ccc(Cl)cc1` was run?
Its T/C is 90 % of control.

And the T/C (dose: 200.0 mg/kg/injection, schedule: Q04DX002 (ip), vehicle: saline with Tween-80)?
The T/C was 93 % of control.

And the T/C (dose: 400.0 mg/kg/injection, schedule: Q04DX002 (ip), vehicle: saline with Tween-80)?
The T/C was 93 % of control.

What does the source list for `CN(Cc1ccccc1)C(Cc1c[nH]c2ccccc12)C(=O)O` (stereo unspecified)?
T/C (dose: 25.0 mg/kg/injection, schedule: Q04DX003 (ip), vehicle: saline): 111 % of control; T/C (dose: 50.0 mg/kg/injection, schedule: Q04DX003 (ip), vehicle: saline): 108 % of control; T/C [13]: 100 % of control; T/C [10]: 94 % of control; T/C (dose: 150.0 mg/kg/injection, schedule: Q04DX003 (ip), vehicle: acetone): 91 % of control; T/C (dose: 225.0 mg/kg/injection, schedule: Q04DX003 (ip), vehicle: acetone): 109 % of control; T/C (dose: 335.0 mg/kg/injection, schedule: Q04DX003 (ip), vehicle: acetone): 100 % of control

For `NC(=S)N/N=C/c1cc(Br)ccc1O`, which T/C (dose: 100.0 mg/kg/injection, schedule: Q01DX001 (ip), vehicle: carboxymethylcellulose (CMC)) is on record?
Its T/C is 100 % of control.

And the T/C (dose: 200.0 mg/kg/injection, schedule: Q01DX001 (ip), vehicle: carboxymethylcellulose (CMC))?
Its T/C is 100 % of control.

And the T/C (dose: 400.0 mg/kg/injection, schedule: Q01DX001 (ip), vehicle: carboxymethylcellulose (CMC))?
Its T/C is 105 % of control.

With `CON(C)c1nc(Cl)nc(Cl)n1` as the compound, how does the T/C (dose: 50.0 mg/kg/injection, schedule: Q01DX001 (ip), vehicle: saline) read?
Its T/C is 105 % of control.

What about the T/C (dose: 100.0 mg/kg/injection, schedule: Q01DX001 (ip), vehicle: Klucel (hydroxypropylcellulose) (HPC)) of the same compound?
Its T/C is 103 % of control.

And the T/C [13]?
Its T/C is 100 % of control.

What about the T/C [1] of the same compound?
Its T/C is 95 % of control.

What about the T/C (dose: 200.0 mg/kg/injection, schedule: Q01DX001 (ip), vehicle: Klucel (hydroxypropylcellulose) (HPC)) of the same compound?
Its T/C is 94 % of control.

And the T/C (dose: 200.0 mg/kg/injection, schedule: Q01DX001 (ip), vehicle: saline)?
Its T/C is 94 % of control.

What about the T/C [3] of the same compound?
Its T/C is 98 % of control.

What about the T/C (dose: 400.0 mg/kg/injection, schedule: Q01DX001 (ip), vehicle: Klucel (hydroxypropylcellulose) (HPC)) of the same compound?
The T/C was 98 % of control.

And the T/C (dose: 400.0 mg/kg/injection, schedule: Q01DX001 (ip), vehicle: saline)?
The T/C was 102 % of control.

What about the T/C [5] of the same compound?
The T/C was 96 % of control.

How did the T/C [7] turn out when `Nc1c(Br)cc2c(c1Br)Cc1cc([N+](=O)[O-])ccc1-2` was run?
Its T/C is 104 % of control.

What about the T/C [8] of the same compound?
The T/C was 103 % of control.

And the T/C [9]?
Its T/C is 98 % of control.

Which T/C (dose: 100.0 mg/kg/injection, schedule: Q01DX Z (ip), vehicle: methylcellulose (MC)) does the source give for `CCOC(=O)/C(C#N)=C\c1ccc(N(C)C)cc1` here?
Its T/C is 106 % of control.

What about the T/C (dose: 200.0 mg/kg/injection, schedule: Q01DX Z (ip), vehicle: methylcellulose (MC)) of the same compound?
Its T/C is 108 % of control.

How did the T/C (dose: 5.0 mg/kg/injection, schedule: Q04DX003 (ip), vehicle: saline with Tween-80) turn out when `c1ccc2c(C(CCN3CCCCC3)CNC3=NCCN3)cccc2c1` (stereo unspecified) was run?
Its T/C is 96 % of control.

And the T/C (dose: 10.0 mg/kg/injection, schedule: Q04DX003 (ip), vehicle: saline with Tween-80)?
Its T/C is 105 % of control.

And the T/C (dose: 20.0 mg/kg/injection, schedule: Q04DX003 (ip), vehicle: saline with Tween-80)?
Its T/C is 98 % of control.

`C/C(=N\NC(N)=S)C(O)c1ccccc1` (stereo unspecified) was tested. Which T/C (dose: 5.0 mg/kg/injection, schedule: Q01DX001 (ip), vehicle: other) did it give?
Its T/C is 105 % of control.

What about the T/C (dose: 10.0 mg/kg/injection, schedule: Q01DX001 (ip), vehicle: other) of the same compound?
Its T/C is 100 % of control.

What about the T/C (dose: 20.0 mg/kg/injection, schedule: Q01DX001 (ip), vehicle: other) of the same compound?
Its T/C is 105 % of control.

And the T/C (dose: 40.0 mg/kg/injection, schedule: Q01DX001 (ip), vehicle: other)?
The T/C was 100 % of control.

And the T/C (dose: 80.0 mg/kg/injection, schedule: Q01DX001 (ip), vehicle: other)?
Its T/C is 105 % of control.
